Data: a melting point compilation (Tetko et al.; mined from patent text by program, amines drawn as free bases though some values may be those of a salt)

Work on `Cc1ccccc1NC(=O)CN(C(=O)CN1C(=O)c2ccccc2C1=O)c1ccccc1` yielded a melting point of 160 °C. For `O=C(c1ccc(F)cc1)N1CCC[C@H](c2noc(Cc3ccccc3)n2)C1`, the melting point was 75 °C. `Cc1cc(S(N)(=O)=O)ccc1NC(=O)CCl` gave a melting point of 193 to 194 °C. Work on `CC1(c2ccc([N+](=O)[O-])cc2)Cc2cc(O)c(Cl)c(Cl)c2C1=O` (configuration not stated) yielded a melting point of 268 to 270 °C. For `CCCCCc1cc2c(nc(O)n2CC2CCOCC2)c(N)n1`, the melting point was > 250 °C. Work on `CNC(=O)C(=O)c1ccccc1COc1ccc(-c2ccccc2)cc1` yielded a melting point of 144 to 145 °C. Compound `O=C(NCCc1ccccc1)[C@@H]1Cc2ccccc2N1S(=O)(=O)c1cccc(CNC(=O)C(F)(F)F)c1` has a melting point of 70 °C. In the case of `CN1CCC(c2cc3cc(C4(O)CCCCC4)ccc3o2)CC1`, the melting point is reported as 155 to 157 °C. With `CCc1cc(C(C)=O)c(O)cc1OCCCC(C)(C)C#N` the melting point was 55 to 56 °C. With `O=C(c1ccccc1)c1cc(Cl)cc2c1S(=O)CC2C(=O)O` (configuration not stated) the melting point was 172 to 174 °C. With `CCCN1C(=O)C(C)(C)N=C(c2ccccc2F)c2cc([N+](=O)[O-])cc(Cl)c21` the melting point was 178 to 179 °C. In the case of `O=C(NCCN1CCOc2ccc(O)cc21)c1ccco1`, the melting point is reported as 59 to 62 °C. Work on `CCOC(=O)c1cn2c(Cl)cccc2n1` yielded a melting point of 143 to 145 °C. Compound `N#Cc1ccsc1-c1ccc(CBr)cc1` has a melting point of 80 °C. With `O=C1NCCN(CC(=O)N2CCOCC2)C1c1cccs1` (configuration not stated) the melting point was 190 to 193 °C. For `N#Cc1cc(NC(=O)c2ccc3ccccc3c2)ccc1N1CCC(O)CC1`, the melting point was 183 to 185 °C. Compound `O=C(/C=C/c1ccc(O)cc1)CC(=O)/C=C/c1ccc(O)cc1Cl` has a melting point of 131 to 138 °C. With `CS(=O)(=O)c1ccc2c(c1)C(=O)Cc1ccccc1O2` the melting point was 105 to 106 °C. Work on `Cc1cc(C2=NOC(c3cc(Cl)cc(Cl)c3)(C(F)(F)F)C2)ccc1C(=O)Nc1ncc(Cl)cn1` (configuration not stated) yielded a melting point of 137 to 141 °C. Compound `COc1ccc2nc(-c3ccc4c(c3)NC(=O)C4(C)C)[nH]c2c1` has a melting point of 85 to 90 °C. With `CCCCCCCNCCCCCO` the melting point was 47 to 48 °C. `CC1(C)Oc2ccc(Br)cc2C(n2ccccc2=O)=C1CN(O)C(N)=S` gave a melting point of 219 °C. For `COC(=O)c1sc(C)c2ncn(Cc3ccc(-c4ccccc4-c4nnn[nH]4)cc3)c12`, the melting point was 188 to 189 °C. Compound `Cc1nnc(-c2ccnc(NC(=O)OC(C)(C)C)c2)o1` has a melting point of 290 to 291 °C. Compound `CCOC(=O)CNC(=O)c1cn2nc(Cl)ccc2n1` has a melting point of 190 to 191 °C. With `O=C1CCCC2=C1C(c1ccc(F)c(Br)c1)C1=C(CCCC1)N2` (configuration not stated) the melting point was 254 to 257 °C. For `CN(C)C=C(C(=O)c1ccccc1)C(=O)c1ccccc1`, the melting point was 120 °C. With `COC(=O)C(C)=CC1C(C(=O)OC(C)(C)N2C(=O)C=CC2=O)C1(C)C` (configuration not stated) the melting point was 98.7 °C. For `COc1cc2ncnc(N3CCc4cc5[nH]ccc5cc43)c2cc1OC`, the melting point was 245 to 252 °C. `C=CCOC(=O)C(C#N)=C1Nc2ccccc2O1` showed a melting point of 181 to 183 °C. `CS(=O)(=O)Oc1ccc2c(c1)C1(CCCC1)CO2` showed a melting point of 75 to 77 °C. Compound `Nc1ccc(CCc2ccc(Cl)c(Cl)c2)cc1O` has a melting point of 147 to 149 °C. Work on `O=C(OC(c1ccc(Cl)cc1Cl)C(Oc1ccc(Cl)cc1)n1cncn1)c1ccc(Cl)cc1Cl` (configuration not stated) yielded a melting point of 132 to 135 °C. `CCOC(=O)C1=C(C)NC(C)=C(C(=O)OCC)C1c1cccc(Cl)c1Cl` gave a melting point of 125 to 126 °C. Work on `COC(=O)C1=C(C)NC(C)=C(C(=O)OCC=Cc2ccccc2)C1c1cccc([N+](=O)[O-])c1` (configuration not stated) yielded a melting point of 143 to 144 °C. In the case of `CCOCc1nc2c(N)nc3cc(-c4ccc(F)nc4)cnc3c2n1CC(C)(C)F`, the melting point is reported as 198 to 199 °C. For `CCOc1ccc(-c2cc(C(F)(F)F)n3cnc(-c4ccncc4)c3n2)cc1C(F)(F)F`, the melting point was 244 °C. Compound `OC(Cn1ccnc1)c1ccc2ccccc2c1` (configuration not stated) has a melting point of 156 to 160 °C. With `NC(=O)N1CCN(c2ccc(O)c(O)c2)C1=O` the melting point was > 250 °C. Compound `COc1ccc(Cl)cc1S(=O)(=O)N1C2CCC1CN(CC(=O)Nc1ccccc1C)C2` has a melting point of 180 to 181 °C. Compound `COCc1cnc(NC(=O)C(Cc2ccc(F)cc2)c2ccc(S(C)(=O)=O)cc2)cn1` (configuration not stated) has a melting point of 69 to 82.3 °C. `CCC(C)c1ccc(N(Cc2ccc(C(C)(C)C)cc2)C(=N)N(C)c2ccccc2)cc1` (configuration not stated) gave a melting point of 80 to 82 °C. Work on `O=C(O)C(=O)c1ccc2c(c1)OCO2` yielded a melting point of 144 to 146 °C. In the case of `N#CC1=C(c2cc3ccccc3s2)Nc2n[nH]cc2C1c1cccc2nonc12` (configuration not stated), the melting point is reported as 220 °C. `CC1CCN(CCCC(=O)c2ccc3oc4ccc(C(=O)CCCN5CCC(C)CC5)cc4c3c2)CC1` gave a melting point of 72 to 73 °C. With `O=C=NCc1cccnc1` the melting point was 141 to 146 °C. Work on `COc1ccc(C(=O)c2nnc(-c3ccccc3)o2)cc1` yielded a melting point of 152 °C. With `Cc1cn(NCCCc2ccncc2F)c2ccc(O)cc12` the melting point was 157 to 160 °C. Compound `CC1=C(C(=O)OC(C)(C)C)C(c2ccc(F)cc2)C(C(=O)OC(C)(C)C)=C(C)N1` has a melting point of 149 to 150 °C. Work on `C[C@H]1[C@H](N)CN1c1c(F)c(N)c2c(=O)c(C(=O)O)cn(C3CC3)c2c1F` (relative stereo) yielded a melting point of 206 to 210 °C. In the case of `O=C(Nc1ccc(-n2nc(C(F)(F)F)cc2OC(F)F)cc1)c1cccnc1F`, the melting point is reported as 149 to 150 °C. `CCCCOc1ccc2cc(Nc3ccc(O)cc3)ccc2c1` gave a melting point of 138 to 139 °C. `O=C(CN1C(=O)C2(COc3cc4c(cc32)CCO4)c2c(Br)cccc21)Nc1ccccc1F` (configuration not stated) showed a melting point of 245 to 246 °C. `O=C(O)CCCCCn1c2ccccc2c(=O)c2cc(Br)ccc21` showed a melting point of 213 °C. `COc1cc(/C=C/C=C/CO)ccc1OCc1nc(-c2ccccc2)oc1C` showed a melting point of 149 to 151 °C. For `CNC(=O)c1ccc(C(=O)OC)cc1N`, the melting point was 167 to 168 °C. With `N#Cc1ccc(NC(=O)[C@H]2NCC[C@@H]2O)c2ccccc12` the melting point was 174 to 176 °C. `Cc1nc(N2CCc3ccccc3CC2)c(C#N)c(=O)n1N(C)C(=O)OC(C)(C)C` showed a melting point of 164 to 166 °C. With `CCc1c(Nc2cc(C)cc(C)c2)nc(OC)nc1OC` the melting point was 113 to 114 °C. `COc1ccc(NC(=O)c2ccccc2)cc1NCc1ccc2c(c1)OCCO2` showed a melting point of 174 to 175 °C. `CS(=O)(=O)c1ccc(Oc2c(-c3ccc(S(C)(=O)=O)cc3)cnn(CC(F)(F)F)c2=O)cc1` gave a melting point of 212 to 213 °C. `CCCc1c(OCC(C)CC(=O)NCCCCc2cccnc2)ccc(C(C)=O)c1O` (configuration not stated) gave a melting point of 58 to 60 °C. `ON=Cc1ccc2c(c1)Sc1ccccc1C=C2` showed a melting point of 206 to 207 °C. Work on `COc1ccc(CNC(=S)N2CCN(c3ncnc4cc(OC)c(OC)cc34)CC2)cc1` yielded a melting point of 201 to 204 °C. Compound `CCOC(=O)c1ccc(C)c(Nc2nccc(-c3cccnc3)n2)c1` has a melting point of 95 to 96 °C. In the case of `N#CC1C(c2ccccc2)N1C(=O)NC(=O)CCl` (configuration not stated), the melting point is reported as 153 to 158 °C. In the case of `CON=C(C(=O)O)c1nc(N)c(Cl)cc1Cl`, the melting point is reported as 139 to 144 °C. In the case of `CC(C)[C@H]1c2ccc(F)cc2CC[C@]1(O)CCNCc1nc2ccccc2s1`, the melting point is reported as 102 to 103 °C. With `N=C(NO)c1nc(-c2ccc(Cl)cc2)cc(C(F)(F)F)n1` the melting point was 243 °C. With `C[C@@H]1CNc2c(cccc2[N+](=O)[O-])[C@H](C)N1` (relative stereo) the melting point was 62 °C. With `Cc1ccc([C@H]2CCCN2[S@@](=O)C(C)(C)C)cc1` the melting point was 62 to 64 °C. Compound `CCOc1ccccc1N1CCN(CCCC2CN(C)C(=O)O2)CC1` (configuration not stated) has a melting point of 79 to 81 °C.
